Reference: PMC7400437, “Synthesis and Evaluation of the Antibacterial Activities of 13-Substituted Berberine Derivatives” (Antibiotics, 2020)

Assays:
S. aureus = assay: MIC, antimicrobial activity assay; assay type: cell-based, Staphylococcus aureus (ATCC 6538P); conditions: Staphylococcus aureus; Table 1 first screening; read-out: Minimal Inhibitory Concentration (MIC) S. aureus
B. subtilis = assay: MIC, antimicrobial activity assay; assay type: cell-based, Bacillus subtilis (ATCC 6633); conditions: Bacillus subtilis; Table 1 first screening; read-out: Minimal Inhibitory Concentration (MIC) B. subtilis
E. coli = assay: MIC, antimicrobial activity assay; assay type: cell-based, Escherichia coli (ATCC 8739); conditions: Escherichia coli; Table 1 first screening; read-out: Minimal Inhibitory Concentration (MIC) E. coli
P. aeruginosa = assay: MIC, antimicrobial activity assay; assay type: cell-based, Pseudomonas aeruginosa (ATCC 9027); conditions: Pseudomonas aeruginosa; Table 1 first screening; read-out: Minimal Inhibitory Concentration (MIC) P. aeruginosa
M. smegmatis = assay: microbe, parasite or virus in culture; assay type: cell-based, Mycobacterium smegmatis (mc2155, ATCC 700084); conditions: Mycolicibacterium smegmatis, 72 h, read-out: Minimal Inhibitory Concentration (MIC) M. smegmatis
C. albicans = assay: MIC, antifungal activity assay; assay type: cell-based, Candida albicans (DSM 10697); conditions: Candida albicans; Table 1 first screening; 35 °C, 24 h; read-out: Minimal Inhibitory Concentration (MIC) C. albicans
[1] = test system: BEAS (human airway epithelial cells); assay: Cytotoxic assay on human cells (resazurin); assay type: cell-based; conditions: Epithelial cell, 48 h, means +/−SD, read-out: Inhibitory Concentration 50 (IC50) on cell viability, BEAS
Description: (§1) The toxicity of berberine and berberine’s derivatives on human cells was evaluated using resazurin assay as previously described. Human cells used were BEAS (ATCC CRL-9609), Caco2 (ATCC HTB-37) and HepG2 (ATCC HB-8065) corresponding respectively to human airway epithelial cells, intestinal epithelial cells and liver cells. Cells were cultured in Dulbecco’s modified essential medium (DMEM) supplemented with 10% fetal bovine serum (FBS), 1% L-glutamine and 1% antibiotics (Thermo Fisher Scientific, Illkirch-Graffenstaden, France). Cells were routinely grown on 25 cm^2 flasks and maintained in a 5% CO2 incubator at 37 °C. For toxicity assay, cells were detached using trypsin–EDTA solution (Thermo Fisher Scientific), counted using Mallasez counting chamber and seeded into 96-well cell culture plates (Greiner bio-One, Dominique Dutscher, Brumath, France) at approximately 10,000 cells per well. The cells were left to grow for 48–72 h at 37 °C in a 5% CO2 incubator until they reached confluence. Media from wells was then aspirated and cells were treated with 100 µL of culture media containing increasing concentrations of berberine or berberine’s derivatives obtained by serial dilution (from 0 to 50 µM, 1:2 dilution), DMSO (0.5% DMSO final concentration) was used as negative control. After 48 h incubation at 37 °C in a 5% CO2 incubator, cell viability was evaluated using resazurin based in vitro toxicity assay kit (Sigma-Aldrich) following manufacturer’s instructions. Briefly, cell wells were emptied, and cells were treated with 100 µL of resazurin diluted 1:10 in sterile PBS containing calcium and magnesium (PBS^++, pH 7.4). After 4 h incubation at 37 °C, fluorescence intensity (excitation wavelength of 530 nm/emission wavelength of 590 nm) was measured using Synergy Mx microplate reader (Biotek). The fluorescence values were normalized by the controls (DMSO treated cells) and expressed as percent viability. The IC50 values of berberine and berberine’s derivatives on cell viability (i.e., the concentration of derivative causing a reduction of 50% of the cell viability) were calculated using GraphPad® Prism 7 software (San Diego, CA, USA). t-Test and two ways ANOVA analyses were used to address the significant differences between mean values with significance set at p < 0.05.

[2] = test system: Caco2 (human intestinal epithelial cells); assay: Cytotoxic assay on human cells (resazurin); assay type: cell-based; conditions: Homo sapiens, Caco-2, 48 h, read-out: Inhibitory Concentration 50 (IC50) on cell viability, Caco2
Description: as §1

[3] = test system: HepG2 (human liver cells); assay: Cytotoxic assay on human cells (resazurin); assay type: cell-based; conditions: HepG2, 48 h, read-out: Inhibitory Concentration 50 (IC50) on cell viability, HEPG2
Description: as §1

[4] = test system: selected relevant microorganisms; assay: Antimicrobial activity, overall statement (active/inactive); assay type: cell-based
[5] = test system: bacterial membrane integrity; assay: Bacterial membrane permeabilization assay (propidium iodide), strain not specified; assay type: cell-based; conditions: data not shown
Description: Membrane permeabilization by berberine derivatives was evaluated using the cell-impermeable DNA/RNA probe propidium iodide as previously explained. Logarithmic growing bacterial suspensions were prepared from overnight bacterial suspension by 1 in 10 dilution. After 3 h incubation at 37 °C, 200 rpm, bacterial suspensions were centrifuged for 5 min at 3000 rpm. Cell pellets were then resuspended in sterile PBS at about 10^9 cells/mL. Propidium iodide (Sigma Aldrich) was then added to the suspension at a final concentration of 60 µM. 100 µL of this suspension were then transferred into 96-well black plates (Dominique Dutscher) and exposed to increasing concentrations of berberine’s derivative (from 0 to 100 µM, 1:2 dilution). […] All steps of the assay were performed in aerobic condition except for H. pylori which was done in microaerobic condition generated with GasPak unit (Sigma Aldrich). Bacteria were incubated at 37 °C and the kinetics of fluorescence variations (excitation at 530 nm and emission at 590 nm) were then recorded over time using a Synergy Mx microplate reader (Biotek). Cetyl trimethylammonium bromide (CTAB) at 300 µM was used as positive control giving 100% permeabilization. Results were expressed in % of permeabilization. All experiments were done in triplicate.

COc1ccc2cc3[n+](cc2c1OC)CCc1cc2c(cc1-3)OCO2 [Berberine]
MIC (S. aureus): > 100 µM | MIC (B. subtilis): > 100 µM | MIC (E. coli): > 100 µM | MIC (P. aeruginosa): > 100 µM | MIC (M. smegmatis): 100 µM | MIC (C. albicans): 100 µM | IC50 [1]: 40.5 ± 5.4 µM | IC50 [2]: 21.6 ± 2.7 µM | IC50 [3]: > 50 µM | antimicrobial activity (active/inactive) [4]: low to no antimicrobial activity

CCOC(=O)Cc1c2[n+](cc3c(OC)c(OC)ccc13)CCc1cc3c(cc1-2)OCO3 [Compound 4, 13-(Acetic Acid Ethylester) Berberine]
MIC (S. aureus): > 100 µM | MIC (B. subtilis): > 100 µM | MIC (E. coli): > 100 µM | MIC (P. aeruginosa): > 100 µM | MIC (M. smegmatis): 100 µM | MIC (C. albicans): > 100 µM | melting point: 216 °C

COc1ccc2c(Cc3ccc(F)cc3)c3[n+](cc2c1OC)CCc1cc2c(cc1-3)OCO2 [Compound 6, 13-(4-Fluorobenzyl)Berberine]
MIC (S. aureus): 12.5 to 25 µM | MIC (B. subtilis): 50 µM | MIC (E. coli): > 100 µM | MIC (P. aeruginosa): > 100 µM | MIC (M. smegmatis): 25 µM | MIC (C. albicans): > 100 µM | IC50 [1]: > 50 µM | IC50 [2]: 36.9 ± 4.3 µM | IC50 [3]: > 50 µM | melting point: 238 °C

COc1cc(Cc2c3[n+](cc4c(OC)c(OC)ccc24)CCc2cc4c(cc2-3)OCO4)cc(OC)c1OC [Compound 15, 13[(3,4,5-Trimethoxyphenyl)methyl]Berberine]
MIC (S. aureus): 100 µM | MIC (B. subtilis): > 100 µM | MIC (E. coli): > 100 µM | MIC (P. aeruginosa): > 100 µM | MIC (M. smegmatis): 50 µM | MIC (C. albicans): > 100 µM | membrane permeabilization (inactive derivatives) [5]: low to no membrane permeabilization | antimicrobial activity (active/inactive) [4]: No Activity

COc1ccc2c(Cc3ccc(/C=C/C(=O)c4cc(NC(C)=O)ccc4O)cc3)c3[n+](cc2c1OC)CCc1cc2c(cc1-3)OCO2 [Compound 24, N-{3-[(2E)-3-{4-[(Berberin-13-yl)methyl]phenyl}prop-2-enoyl]-4-hydroxyphenyl}acetamide]
MIC (S. aureus): 50 to 100 µM | MIC (B. subtilis): 100 µM | MIC (E. coli): > 100 µM | MIC (P. aeruginosa): > 100 µM | MIC (M. smegmatis): 25 µM | MIC (C. albicans): > 100 µM | membrane permeabilization (inactive derivatives) [5]: low to no membrane permeabilization | antimicrobial activity (active/inactive) [4]: No Activity
